Assay results published in patent US7632666B2 (priority 2005, dated 2009).

Tests used:
[1] = target: haloalkane dehalogenase LinB (Sphingobium indicum, UniProt D4Z2G1); assay type: biochemical, Sphingomonas paucimobilis UT26
[2] = target: T1, haloalkane dehalogenase DbjA (Bradyrhizobium diazoefficiens, UniProt P59337); assay type: biochemical, Bradyrhizobium japonicum USDA110
[3] = target: haloalkane dehalogenase DhaA (Rhodococcus rhodochrous, UniProt P0A3G2); assay type: biochemical, Rhodococcus rhodochrous NCIMB 13064
Chain of haloalkane dehalogenase DhaA (P0A3G2 whole entry): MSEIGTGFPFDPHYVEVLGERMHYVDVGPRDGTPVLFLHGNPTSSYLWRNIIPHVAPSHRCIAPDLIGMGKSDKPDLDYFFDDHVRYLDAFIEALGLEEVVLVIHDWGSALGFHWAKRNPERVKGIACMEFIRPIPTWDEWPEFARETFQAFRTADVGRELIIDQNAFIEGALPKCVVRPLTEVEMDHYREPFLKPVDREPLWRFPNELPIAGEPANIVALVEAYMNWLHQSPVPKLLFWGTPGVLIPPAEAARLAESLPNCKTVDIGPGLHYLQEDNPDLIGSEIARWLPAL

[4] = target: haloalkane dehalogenase DhlA (Xanthobacter autotrophicus, UniProt P22643); assay type: biochemical, Xanthobacter autotrophicus GJ10
Chain of haloalkane dehalogenase DhlA (P22643 whole entry): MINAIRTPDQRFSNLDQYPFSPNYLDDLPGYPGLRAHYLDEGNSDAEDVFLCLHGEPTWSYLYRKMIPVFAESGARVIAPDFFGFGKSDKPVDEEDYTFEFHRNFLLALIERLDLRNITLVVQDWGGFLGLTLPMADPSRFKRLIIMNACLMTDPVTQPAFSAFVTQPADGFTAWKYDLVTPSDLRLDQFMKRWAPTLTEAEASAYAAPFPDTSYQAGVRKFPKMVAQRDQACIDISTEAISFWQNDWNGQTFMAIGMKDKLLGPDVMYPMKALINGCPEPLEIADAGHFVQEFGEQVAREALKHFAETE

[5] = target: haloalkane dehalogenase LinB L177H (Sphingobium indicum, UniProt D4Z2G1, L177H); assay type: biochemical
Chain of haloalkane dehalogenase LinB L177H (D4Z2G1 whole entry L177H, looked up): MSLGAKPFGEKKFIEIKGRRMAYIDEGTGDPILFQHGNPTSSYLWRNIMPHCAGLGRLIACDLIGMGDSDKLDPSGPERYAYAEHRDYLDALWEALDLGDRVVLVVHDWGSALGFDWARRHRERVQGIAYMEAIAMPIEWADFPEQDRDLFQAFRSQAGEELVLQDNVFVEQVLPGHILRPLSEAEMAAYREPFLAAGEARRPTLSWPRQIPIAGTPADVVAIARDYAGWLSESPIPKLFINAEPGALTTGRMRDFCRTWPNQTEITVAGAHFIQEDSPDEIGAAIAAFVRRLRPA

[6] = target: haloalkane dehalogenase LinB L177S (Sphingobium indicum, UniProt D4Z2G1, L177S); assay type: biochemical
Chain of haloalkane dehalogenase LinB L177S (D4Z2G1 whole entry L177S, looked up): as the sequence (D4Z2G1 whole entry L177H, looked up) above, with H177S counted along it

[7] = target: haloalkane dehalogenase LinB L177V (Sphingobium indicum, UniProt D4Z2G1, L177V); assay type: biochemical
Chain of haloalkane dehalogenase LinB L177V (D4Z2G1 whole entry L177V, looked up): as the sequence (D4Z2G1 whole entry L177H, looked up) above, with H177V counted along it

[8] = target: haloalkane dehalogenase LinB L177R (Sphingobium indicum, UniProt D4Z2G1, L177R); assay type: biochemical
Chain of haloalkane dehalogenase LinB L177R (D4Z2G1 whole entry L177R, looked up): as the sequence (D4Z2G1 whole entry L177H, looked up) above, with H177R counted along it

[9] = target: haloalkane dehalogenase LinB L177D (Sphingobium indicum, UniProt D4Z2G1, L177D); assay type: biochemical
Chain of haloalkane dehalogenase LinB L177D (D4Z2G1 whole entry L177D, looked up): as the sequence (D4Z2G1 whole entry L177H, looked up) above, with H177D counted along it

[10] = target: haloalkane dehalogenase LinB L177Q (Sphingobium indicum, UniProt D4Z2G1, L177Q); assay type: biochemical
Chain of haloalkane dehalogenase LinB L177Q (D4Z2G1 whole entry L177Q, looked up): as the sequence (D4Z2G1 whole entry L177H, looked up) above, with H177Q counted along it

[11] = target: haloalkane dehalogenase LinB L177M (Sphingobium indicum, UniProt D4Z2G1, L177M); assay type: biochemical
Chain of haloalkane dehalogenase LinB L177M (D4Z2G1 whole entry L177M, looked up): as the sequence (D4Z2G1 whole entry L177H, looked up) above, with H177M counted along it

[12] = target: haloalkane dehalogenase LinB L177K (Sphingobium indicum, UniProt D4Z2G1, L177K); assay type: biochemical
Chain of haloalkane dehalogenase LinB L177K (D4Z2G1 whole entry L177K, looked up): as the sequence (D4Z2G1 whole entry L177H, looked up) above, with H177K counted along it

[13] = target: haloalkane dehalogenase LinB L177Y (Sphingobium indicum, UniProt D4Z2G1, L177Y); assay type: biochemical
Chain of haloalkane dehalogenase LinB L177Y (D4Z2G1 whole entry L177Y, looked up): as the sequence (D4Z2G1 whole entry L177H, looked up) above, with H177Y counted along it

[14] = target: haloalkane dehalogenase LinB L177A (Sphingobium indicum, UniProt D4Z2G1, L177A); assay type: biochemical
Chain of haloalkane dehalogenase LinB L177A (D4Z2G1 whole entry L177A, looked up): as the sequence (D4Z2G1 whole entry L177H, looked up) above, with H177A counted along it

[15] = target: haloalkane dehalogenase LinB wild type (Sphingobium indicum, UniProt D4Z2G1); assay type: biochemical, Sphingomonas paucimobilis UT26
Chain of haloalkane dehalogenase LinB wild type (D4Z2G1 whole entry): as the sequence (D4Z2G1 whole entry L177H, looked up) above, with H177L counted along it

[16] = target: haloalkane dehalogenase LinB L177F (Sphingobium indicum, UniProt D4Z2G1, L177F); assay type: biochemical
Chain of haloalkane dehalogenase LinB L177F (D4Z2G1 whole entry L177F, looked up): as the sequence (D4Z2G1 whole entry L177H, looked up) above, with H177F counted along it

[17] = target: haloalkane dehalogenase LinB L177W (Sphingobium indicum, UniProt D4Z2G1, L177W); assay type: biochemical
Chain of haloalkane dehalogenase LinB L177W (D4Z2G1 whole entry L177W, looked up): as the sequence (D4Z2G1 whole entry L177H, looked up) above, with H177W counted along it

[18] = target: haloalkane dehalogenase LinB L177C (Sphingobium indicum, UniProt D4Z2G1, L177C); assay type: biochemical
Chain of haloalkane dehalogenase LinB L177C (D4Z2G1 whole entry L177C, looked up): as the sequence (D4Z2G1 whole entry L177H, looked up) above, with H177C counted along it

[19] = target: haloalkane dehalogenase LinB L177T (Sphingobium indicum, UniProt D4Z2G1, L177T); assay type: biochemical
Chain of haloalkane dehalogenase LinB L177T (D4Z2G1 whole entry L177T, looked up): as the sequence (D4Z2G1 whole entry L177H, looked up) above, with H177T counted along it

[20] = target: haloalkane dehalogenase LinB L177G (Sphingobium indicum, UniProt D4Z2G1, L177G); assay type: biochemical
Chain of haloalkane dehalogenase LinB L177G (D4Z2G1 whole entry L177G, looked up): as the sequence (D4Z2G1 whole entry L177H, looked up) above, with H177G counted along it

[21] = target: T1, haloalkane dehalogenase DbjA; assay type: biochemical, Bradyrhizobium japonicum USDA110; conditions: for Relative enzyme activity (%) 5% of solvent / Relative enzyme activity (%) 10% of solvent / Relative enzyme activity (%) 20% of solvent: pH 8.6

Chain of haloalkane dehalogenase LinB (D4Z2G1 whole entry): as the sequence (D4Z2G1 whole entry L177H, looked up) above, with H177L counted along it
T1 sequence (P59337 whole entry): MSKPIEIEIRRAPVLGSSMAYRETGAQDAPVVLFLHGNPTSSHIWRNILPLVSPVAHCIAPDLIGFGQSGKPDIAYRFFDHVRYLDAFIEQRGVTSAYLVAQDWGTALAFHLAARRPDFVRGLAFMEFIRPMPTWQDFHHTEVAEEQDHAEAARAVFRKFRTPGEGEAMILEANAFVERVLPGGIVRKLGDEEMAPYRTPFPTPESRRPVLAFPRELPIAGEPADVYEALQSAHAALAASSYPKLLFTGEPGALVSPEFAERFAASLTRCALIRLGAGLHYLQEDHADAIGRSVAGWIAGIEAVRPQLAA

Row | SMILES | E-values LinB [1] | E-values DbjA [2] | E-values DhaA [3] | E-values DhlA [4] | Relative enzyme activity (%) 5% of solvent [21] [%] | Relative enzyme activity (%) 10% of solvent [21] [%] | Relative enzyme activity (%) 20% of solvent [21] [%] | further results
1 | CC(C)(C)C(Br)CBr (racemic) [1,2-dibromo-3,3-dimethylbutane] | 1.1 |  |  |  |  |  |  | 
2 | CCC(Br)CBr (racemic) [1,2-dibromobutane] | 10 | 2.7 | 2 | 1.1 |  |  |  | 
3 | CC(Br)CCBr (racemic) [1,3-dibromobutane] | 4.6 | 1.4 | 1.3 | 2 |  |  |  | 
4 | CC(Cl)CCCl (racemic) [1,3-dichlorobutane] | 2.6 | 1.0 | 1.6 | 2.8 |  |  |  | 
5 | CC(CCl)CBr (racemic) [1-bromo-3-chloro-2-methylpropane] | 1.8 | 1.4 | 1.7 | 1.8 |  |  |  | 
6 | CCCCCC(C)Br (racemic) [2-bromoheptane] | 2.8 | 28 | 2.9 | 2.4 |  |  |  | 
7 | CCCCC(C)Br (racemic) [2-bromohexane] | 12 | 35 | 4 |  |  |  |  | 
8 | COC(=O)C(Br)CCBr (racemic) [methyl 2,4-dibromobutyrate] | 1.9 | 1.3 | 1 | 1.6 |  |  |  | 
9 | BrCCBr [1,2-dibromoethane] |  |  |  |  |  |  |  | Relative activities (% of wt) L177H [5]: 55 % of wt; Relative activities (% of wt) L177S [6]: 84 % of wt; Relative activities (% of wt) L177V [7]: 84 % of wt; Relative activities (% of wt) L177R [8]: 68 % of wt; Km [9]: 14 mM; Relative activities (% of wt) L177D [9]: 77 % of wt; Relative activities (% of wt) L177Q [10]: 123 % of wt; Relative activities (% of wt) L177M [11]: 126 % of wt; Relative activities (% of wt) L177K [12]: 97 % of wt; Relative activities (% of wt) L177Y [13]: 16 % of wt; Relative activities (% of wt) L177A [14]: 155 % of wt; Relative activities (% of wt) wt1 [15]: 100 % of wt; Relative activities (% of wt) wt2 [15]: 100 % of wt; Relative activities (% of wt) L177F [16]: 70 % of wt; Relative activities (% of wt) L177W [17]: 7 % of wt; Relative activities (% of wt) L177C [18]: 52 % of wt; Relative activities (% of wt) L177T [19]: 107 % of wt; Relative activities (% of wt) L177G [20]: 78 % of wt
10 | CC(Br)CBr (stereo not drawn) [1,2-dibromopropane] | 1.3 | 2.6 | 1.3 | 3 |  |  |  | 
11 | CC(Cl)CCl (stereo not drawn) [1,2-dichloropropane] |  |  |  | 2 |  |  |  | 
12 | ICCCI [1,3-diidopropane] |  |  |  |  |  |  |  | Relative activities (% of wt) L177H [5]: 140 % of wt; Relative activities (% of wt) L177S [6]: 123 % of wt; Relative activities (% of wt) L177V [7]: 206 % of wt; Relative activities (% of wt) L177R [8]: 127 % of wt; Relative activities (% of wt) L177D [9]: 209 % of wt; Relative activities (% of wt) L177Q [10]: 159 % of wt; Relative activities (% of wt) L177M [11]: 202 % of wt; Relative activities (% of wt) L177K [12]: 132 % of wt; Relative activities (% of wt) L177Y [13]: 102 % of wt; Relative activities (% of wt) L177A [14]: 360 % of wt; Relative activities (% of wt) wt1 [15]: 100 % of wt; Relative activities (% of wt) wt2 [15]: 100 % of wt; Relative activities (% of wt) L177F [16]: 130 % of wt; Relative activities (% of wt) L177W [17]: 117 % of wt; Relative activities (% of wt) L177C [18]: 192 % of wt; Relative activities (% of wt) L177T [19]: 108 % of wt; Relative activities (% of wt) L177G [20]: 164 % of wt
13 | C1COCCO1 [1,4-dioxane] |  |  |  |  | 121.4 ± 3.9 | 139.9 ± 7.8 | 152.0 ± 9.5 | DbjA activity in the presence of the solvent in the reaction medium [21]: increasing activity
14 | CCCCBr [1-bromobutane] |  |  |  |  |  |  |  | Relative activities (% of wt) L177H [5]: 224 % of wt; Relative activities (% of wt) L177S [6]: 381 % of wt; Relative activities (% of wt) L177V [7]: 132 % of wt; Relative activities (% of wt) L177R [8]: 165 % of wt; Relative activities (% of wt) L177D [9]: 347 % of wt; Relative activities (% of wt) L177Q [10]: 458 % of wt; Relative activities (% of wt) L177M [11]: 227 % of wt; Relative activities (% of wt) L177K [12]: 201 % of wt; Relative activities (% of wt) L177Y [13]: 112 % of wt; Relative activities (% of wt) L177A [14]: 356 % of wt; Relative activities (% of wt) wt1 [15]: 100 % of wt; Relative activities (% of wt) wt2 [15]: 100 % of wt; Relative activities (% of wt) L177F [16]: 243 % of wt; Relative activities (% of wt) L177W [17]: 60 % of wt; Relative activities (% of wt) L177C [18]: 243 % of wt; Relative activities (% of wt) L177T [19]: 553 % of wt; Relative activities (% of wt) L177G [20]: 380 % of wt
15 | CCCCCl [1-chlorobutane] |  |  |  |  |  |  |  | Km [9]: 21.9 mM
16 | NC=O [Formamide] |  |  |  |  | 73.4 ± 7.6 | 76.3 ± 5.0 | 16.3 ± 0.6 | 
17 | CO [Methanol] |  |  |  |  | 93.5 ± 0.9 | 128.7 ± 3.5 | 160.7 ± 2.0 | DbjA activity in the presence of the solvent in the reaction medium [21]: increasing activity
18 | CN(C)C=O [N,N-dimethylformamide] |  |  |  |  | 110.5 ± 11.6 | 112.6 ± 3.8 | 101.9 ± 1.0 | 
19 | CC(C)=O [acetone] |  |  |  |  | 113.8 ± 7.3 | 140.3 ± 2.1 | 168.2 ± 3.1 | DbjA activity in the presence of the solvent in the reaction medium [21]: increasing activity; increase of reaction rate compared to that in the glycine buffer [21]: 1.68 times
20 | CC#N [acetonitrile] |  |  |  |  | 117.5 ± 8.9 | 124.1 ± 1.0 | 0.0 ± 0.0 | 
21 | OCCO [ethyleneglycol] |  |  |  |  | 87.1 ± 9.8 | 80.5 ± 8.9 | 109.8 ± 4.0 | 
22 | C1CCOC1 [tetrahydrofurane] |  |  |  |  | 111.9 ± 13.4 | 96.9 ± 9.0 | 0.0 ± 0.0 | 
